Results as given in US6177253A, “Screening methods for the identification of anti-HIV compounds employing a cyclosporine-specific monoclonal antibody that cross-reacts with HIV-1 p24” (priority 1998, dated 2001).

Legend:
Assay type in all cases: binding, BALB/c mice
H6 1.5 = test: ELISA inhibition by singly modified Cs-derivatives, McAb H6 1.5; details: group III; D-Lys^8 -Cs-BSA coating
Description: (§1) A second ELISA Procedure used conjugates of D-Lys^8 -Cs-BSA and Thr^2 -Cs-BSA for coating (Queeniaux et al., 1987b). An indirect detection system consisting of rabbit anti-mouse Ig followed by alkaline phosphates-conjugated goat anti-rabbit IgG was performed as previously described (Queenlaux et al., 1987b).
(§2) The binding of the 22 McAbs to these two Cs-BSA conjugates was also found to correlate well with their fine specificity patterns, as characterized with a set of 28-36 Cs derivatives. Typical ELISA curves showing McAb binding either to D-Lys^8 -Cs-BSA (panel A) or to Thr^2 -Ca-BSA (panel B) and inhibited by Cs or Cs derivatives are shown in FIGS. 8A-8B, D-Lys^8 -Cs-BSA was subsequently used for coating in the inhibition experiments, except for those McAbs binding selectively to Thr^2 -Cs-BSA (see Table 4 and FIGS. 7A-7C). An example of the binding of 26 Cs derivatives by McAbs belonging to each of the five specificity groups mentioned above is reported in Table 5. The results are expressed as the difference of IC50 (in log10) between the Cs derivatives and Cs. All Cs-derivatives used in this study were selected for having a conserved peptide ring conformation compared with CsA (as determined in NMR or X-ray diffraction).

C4 2.2 = test: ELISA inhibition by singly modified Cs-derivatives, McAb C4 2.2; details: group V; McAb binds selectively to Thr^2 -Cs-BSA coating
Description: as §1, §2

B11 1.4 = test: ELISA inhibition by singly modified Cs-derivatives, McAb B11 1.4; details: group IV; D-Lys^8 -Cs-BSA coating
Description: as §1, §2

G7 1.1 = test: ELISA inhibition by singly modified Cs-derivatives, McAb G7 1.1; details: group I; McAb binds selectively to Thr^2 -Cs-BSA coating
Description: as §1, §2

H4 1.3 = test: ELISA inhibition by singly modified Cs-derivatives, McAb H4 1.3; details: group II; D-Lys^8 -Cs-BSA coating
Description: as §1, §2

Structure (SMILES) | log10 difference in the concentrations of Cs-derivatives and unmodified Cs required to achieve 50% inhibition in ELISA, McAb H6 1.5 (H6 1.5) [log10] | log10 difference in the concentrations of Cs-derivatives and unmodified Cs required to achieve 50% inhibition in ELISA, McAb C4 2.2 (C4 2.2) [log10] | log10 difference in the concentrations of Cs-derivatives and unmodified Cs required to achieve 50% inhibition in ELISA, McAb B11 1.4 (B11 1.4) [log10] | log10 difference in the concentrations of Cs-derivatives and unmodified Cs required to achieve 50% inhibition in ELISA, McAb G7 1.1 (G7 1.1) [log10] | log10 difference in the concentrations of Cs-derivatives and unmodified Cs required to achieve 50% inhibition in ELISA, McAb H4 1.3 (H4 1.3) [log10]
C/C=C/C[C@@H](C)[C@@H](O)[C@H]1C(=O)N[C@@H](CC)C(=O)N(C)CC(=O)N(C)[C@@H](CC(C)C)C(=O)N[C@@H](C(C)C)C(=O)N(C)[C@@H](CC(C)C)C(=O)N[C@@H](C)C(=O)N[C@H](CO)C(=O)N(C)[C@@H](CC(C)C)C(=O)N(C)[C@@H](CC(C)C)C(=O)N(C)[C@@H](C(C)C)C(=O)N1C [D-Ala^8 D-Ser] | < 0.0 | 0.3 | 0.1 | 1.3 | 0.0
C/C=C/C[C@@H](C)C[C@H]1C(=O)N[C@@H](CC)C(=O)N(C)CC(=O)N(C)[C@@H](CC(C)C)C(=O)N[C@@H](C(C)C)C(=O)N(C)[C@@H](CC(C)C)C(=O)N[C@@H](C)C(=O)N[C@H](C)C(=O)N(C)[C@@H](CC(C)C)C(=O)N(C)[C@@H](CC(C)C)C(=O)N(C)[C@@H](C(C)C)C(=O)N1C [MeBint^1 3'desoxy] | 0.0 | < 0.0 | 0.4 | 0.6 | 1.2
C/C=C/C[C@@H](C)[C@@H](O)[C@H]1C(=O)N[C@@H](CC)C(=O)N(C)CC(=O)N(C)[C@@H](CC(C)C)C(=O)N[C@@H](C(C)C)C(=O)N(C)[C@@H](CC(C)C)C(=O)N[C@@H](C)C(=O)N[C@H](C)C(=O)N(C)[C@@H](CC(C)C)C(=O)N(C)[C@@H](C)C(=O)N(C)[C@@H](C(C)C)C(=O)N1C [MeAla^10 MeAla] | 0.0 | 0.8 | 0.1 | < 0.0 | 0.4
C/C=C/C[C@@H](C)[C@@H](OC(C)=O)[C@H]1C(=O)N[C@@H](CC)C(=O)N(C)CC(=O)N(C)[C@@H](CC(C)C)C(=O)N[C@@H](C(C)C)C(=O)N(C)[C@@H](CC(C)C)C(=O)N[C@@H](C)C(=O)N[C@H](C)C(=O)N(C)[C@@H](CC(C)C)C(=O)N(C)[C@@H](CC(C)C)C(=O)N(C)[C@@H](C(C)C)C(=O)N1C [MeBint^1 3'-O-acetyl] | 0.6 | 0.2 | 0.7 | 0.1 | 1.1
C/C=C/C[C@@H](C)[C@@H](O)[C@H]1C(=O)N[C@@H](C)C(=O)N(C)CC(=O)N(C)[C@@H](CC(C)C)C(=O)N[C@@H](C(C)C)C(=O)N(C)[C@@H](CC(C)C)C(=O)N[C@@H](C)C(=O)N[C@H](C)C(=O)N(C)[C@@H](CC(C)C)C(=O)N(C)[C@@H](CC(C)C)C(=O)N(C)[C@@H](C(C)C)C(=O)N1C [Abu^2 Ala] | 0.0 | 0.1 | 0.4 | 0.2 | 
